From a melting point compilation (Tetko et al.; mined from patent text by program, amines drawn as free bases though some values may be those of a salt) come the findings set out here.

The term melting point denotes the temperature of the solid-liquid transition.

As for `COCCOC(=O)c1c(-c2ccncc2)[nH]c(-c2ccncc2)c1C`, the melting point is 174 to 177 °C.

`Brc1ccc2c(c1)OC(c1ccccc1)(c1ccccc1)O2` had a melting point of 88 to 89 °C.

Turning to `CC(C)(C)c1ccc(C(=O)Nc2cn3cc(Br)ccc3n2)cc1`, the melting point lay in the range of 249 to 250 °C. The figure for `N#CCCCC#Cc1cc(F)c2ncc(C(=O)NCc3ccc(Cl)cc3)c(O)c2c1` is 208 to 210 °C.

`Cc1ccc(-c2nc3ccc(CN4CCN(C)CC4)cc3[nH]2)cc1C#Cc1cnc2cccnn12`: the melting point was 114 to 115 °C. In the case of `COc1ccc(NC(=O)N2CCN(CCc3ccc(-c4cccc(N)n4)cc3)CC2)cc1`, the melting point fell in the range of 182 to 184 °C.

Take `COC(=O)c1cccc(-c2nc(-c3cccc(OC(F)(F)F)c3)cs2)c1`: the melting point lay within 84 to 85 °C. Molecule `Fc1cccc(F)c1-c1c(Cl)nc(Cl)n1-c1ccc(Cl)cc1` returned a melting point of 123 to 125 °C. For the molecule `CC(C)CC(=O)Nc1cccc(-c2ccnc3c(-c4ccc(-c5ccccc5)cc4)cnn23)c1`, the melting point lay in the range of 157 to 160 °C. The figure for `N#CN1CCC(c2nn(-c3ccccc3)c3ccc(F)cc23)CC1` is 137 to 139 °C; for `CN1CCC(=C2c3cc(Br)ccc3C=Cn3cccc32)CC1` it is 138 to 142 °C.

Take `Fc1ccc(Nc2ncnc3ccc(-c4ccsc4)cc23)cc1Cl`: the melting point lay within 195 to 197 °C. The molecule `O[C@@H]1[C@H](O)[C@H](O)CO[C@H]1n1c(Br)nc2cc(Cl)c(Cl)cc21` came in with a melting point of 164 to 165 °C. In turn, `CC(Cl)=CC(C#N)NC(=O)c1cn(C)nc1C` (stereo not given) came in with a melting point of 113 to 114 °C. The figure for `CCNc1nc(SC)ncc1C(=O)O` is 188 °C. As to `CC(=O)NCC1CC(c2cc(F)c(F)c(F)c2)=NO1` (stereo not given), the melting point lay within 136 to 137 °C. The molecule `CC12CCCc3cc(NS(=O)(=O)c4ccc(C(=O)O)cc4)cc(c31)CCC2` displayed a melting point of 215 to 217 °C. The figure for `O=c1[nH][nH]c(=O)c2c(O)c3cccc(Cl)c3nc12` is more than 390 °C. As for `Cc1ccc(N2C(=O)C(O)=C(C(=O)c3ccc(CC(C)C)cc3)C2c2ccc(OC(F)(F)F)cc2)nn1` (stereo not given), the melting point came to 260 °C. As for `Cc1cc(-c2cnn3c(C(F)F)cc(-c4ccc(C(F)(F)F)cc4)nc23)ccn1`, the figure is 213 °C; as for `Cc1cc(-n2cnn(Cc3ccccc3)c2=O)sc1C(=O)NCc1cccnc1`, 180 to 181 °C. Molecule `COc1ccccc1N1CCN(CCCNC(=O)c2cccc3c(=O)c(C)c(-c4cccc([N+](=O)[O-])c4)oc23)CC1` came in with a melting point of 135 to 137 °C. As for `ClCCCOc1ccc(-n2ccnc2)cc1`, the figure is 53 to 55 °C. As for `Cn1nc(-c2ccc(Cl)c(Cl)c2)cc1C(=O)O`, the figure is 252 to 256 °C; as for `CON=C(C(=O)OC)c1cccc(O)c1`, 39.5 to 40.5 °C; as for `CCOC(=O)C(CC(=O)O)(C(=O)OCC)n1cccc1`, 93 to 94 °C. The figure for `NS(=O)(=O)c1ccc(NN=C2C(=O)Nc3ccc(C(=O)NCCN4CCOCC4)cc32)cc1` is 210 to 212 °C.

On to `Fc1ccc(NC(=S)c2ccccn2)cc1`, for which the melting point lay within 82 to 85 °C. The molecule `O=C(C=Cc1ccc(C(F)(F)F)cc1)N1CCCCC1CO` (stereo not given) displayed a melting point of 139 to 140 °C. `O=C(NCC12CC3CC(CC(C3)C1)C2)c1ccccc1C(c1ccc(O)cc1)c1ccc(O)cc1` registered a melting point of 149 to 151 °C. In turn, `CC(C)(C)OC(=O)N1CC(Oc2ccc(N)nc2)C1` yielded a melting point of 83 to 84 °C.

In turn, `COc1ccc(-c2nc(N)sc2-c2cccnc2)cc1` registered a melting point of 265 to 266 °C. Take `CC(=O)NC(=N)NCC1CC2c3cccc4[nH]cc(c34)CC2N(C)C1` (stereo not given): the melting point lay in the range of 218 to 220 °C. The figure for `CC(=O)OCC1OC(n2cc(S)c(=O)[nH]c2=O)CC1(O)C(C)=O` (stereo not given) is 159 to 163 °C. As for `CCCOc1cc(C)ccc1-c1nc(N)c(N=O)c(=O)[nH]1`, the figure is 214 to 216 °C. As for `CCCC(O)(CCC)c1ccc(Cl)c2nc3n(c12)CCCN3c1c(C)cc(Cl)cc1Cl`, the figure is 176 to 178 °C; as for `COC(C)CCC1(O)C2=NCCCN2c2cc(Cl)ccc21` (stereo not given), 146 to 148 °C. For `CC(C)n1c(-c2ccccc2)cc(-c2ccc(F)cc2)c1C=O`, the melting point is 118 to 122 °C. The figure for `CS(=O)(=O)c1ccc(-n2nc(C(F)(F)F)cc2-c2ccc([N+](=O)[O-])cc2)cc1` is 203 to 205 °C; for `CCOC(=O)c1c2ccc(Cl)cc2c(-c2ccccc2)n1CCCO` it is 94 to 96 °C. With `Nc1c(OCCCl)cc(Cl)cc1[N+](=O)[O-]`, the melting point fell in the range of 109 to 110 °C. As for `C=C(Cl)c1c(C(F)(F)F)nc(C)[nH]c1=O`, the figure is 164 to 166 °C; as for `Cc1nccn1-c1ccc(N2C[C@H](CNc3ccon3)OC2=O)cc1F`, 106 to 107 °C; as for `CC1=C(C)CC2C(C1)C(=O)NS2=O` (stereo not given), 135 to 137 °C. As for `COc1ccc(C=O)c(Br)c1`, the figure is 73 to 74 °C. In turn, `COc1cccc(C(=C/C=C/C(=O)NC(C)(C)CCCc2cccnc2)c2cccc(OC)c2)c1` came in with a melting point of 120 to 121 °C. As for `O=C(O)CC(Cc1ccccc1)NC(=O)C1Cc2ccccc2N1S(=O)(=O)c1ccc(-c2cccc(C(F)(F)F)c2)cc1` (stereo not given), the figure is 78 to 82 °C; as for `CCCCCCCCCCC(C)(C)NC(=O)Nc1cc(OC)cc(C(C)(C)C)c1OCOC`, 83 to 85 °C; as for `CCOc1cc(C(=O)NC2CC(C)(C)NC(C)(C)C2)ccc1-c1cc2cc(Cl)c(Cl)cc2[nH]1`, 253 to 255 °C. The figure for `O=Cc1c(O)c(O)cc([N+](=O)[O-])c1CCCC(=O)O` is 164 to 168 °C. As for `O=C(c1cc2ccccc2s1)C1CCN(CCc2ccccc2)CC1`, the figure is 129 to 130 °C. Take `CC1CCCCc2ncc(C#N)c(=O)n21` (stereo not given): the melting point amounted to 154 °C. The figure for `CCc1c(CO)c(CO)c2n1-c1ccccc1C2` is 131 to 133 °C; for `CCCCCCCCCCCCCCCCOC(=O)Nc1ccc(NC(=O)NS(=O)(=O)c2ccc3ccccc3c2)cc1` it is 183 °C; for `CCOC(=O)Nc1cc(-c2cccc3ccccc23)c2nc(C(=O)O)ccc2c1` it is 205 to 208 °C. In turn, `COc1ccc(Oc2ccccc2-c2cn(C(C)(C)C)c(N)c2C#N)cc1` yielded a melting point of 171 to 172 °C. In turn, `COc1ccc(-c2nn(-c3ccsc3)c3c(Cl)cccc23)cc1` returned a melting point of 111 °C. As for `NCc1cccc(-c2csc(N=C(N)N)n2)n1`, the figure is 228 to 229 °C; as for `CCCN=C(N)Nc1ccnc(OCCCO)n1`, 183 to 184 °C; as for `CC(C)Cc1ccc2scc(C(C)N(O)C(N)=O)c2c1` (stereo not given), 151 to 153 °C.

Consider `CCOC(=O)c1c(Cc2ccccc2)nc2c(C(F)(F)F)cccc2c1O`, for which the melting point turned out to be 99 °C. The molecule `Clc1ccc(-c2cc(Cl)c3ccccc3n2)cc1` had a melting point of 119 to 122 °C. The figure for `CN(C)CCNC(=O)CCn1c(-c2ccc(Cl)cc2)nc2cccnc21` is 142 to 143 °C; for `CCCCN1CCC(O)(c2cccc(C(F)(F)F)c2F)CC1` it is 138 °C; for `CN1CCN(c2ccc(Nc3ncc4cc(C#N)c(=O)n(C5CCCC5)c4n3)cc2)CC1` it is 290 to 292 °C. With `ON=C1CCc2cc(Cl)ccc21`, the melting point fell in the range of 181 to 182 °C.

In turn, `CNc1nc(C)c(-c2ccnc(Nc3ccc(N4CCNCC4)cc3)n2)s1` gave a melting point of 253 to 255 °C. The figure for `CCOC(=O)c1cn([C@@H](CSc2cccc(Cl)c2Cl)[C@H](C)O)cn1` is 141 to 143 °C; for `OCc1cccc(-c2nn(Cc3ccccc3)c3ccccc23)c1` it is 98 to 99 °C.

In the case of `C#CCOC(=O)C1C(C)=NC(N2CCCCC2)=C(C(=O)OCC)C1c1cccc([N+](=O)[O-])c1` (stereo not given), the melting point is 121 °C. As for `COC(=O)c1ccc(C(=O)Nc2ccccc2OC)cc1`, the figure is 119 to 121 °C; as for `CN1C(=O)[C@H](NC(=O)COc2ccccc2)N=C(c2ccccc2)c2ccccc21`, 126 to 128 °C; as for `CC(C)(N)CCn1c(=O)oc2ccccc21`, 145 to 147 °C. In the case of `c1cnc2ccc(Cn3nnc4ccc(-c5cnn(C6CCOCC6)c5)nc43)cc2c1`, the melting point is 182 to 184 °C. On to `N#Cc1nc(O)c(-c2cc(O)c(O)c([N+](=O)[O-])c2)nc1C#N`, for which the melting point was more than 300 °C. The figure for `OC1(c2cncnc2)CN2CCC1CC2` (stereo not given) is 126 to 127 °C; for `OC[C@H]1CCCC[C@H]1Nc1nccc(-n2nnc3ccccc32)n1` it is 206 to 208 °C; for `CC(=O)NCCN1CCc2cc(NC(=O)c3ccccc3-c3ccc(C(F)(F)F)cc3)ccc2C1` it is 163 °C. As for `CSc1ccc(CCCOCCCCCCNCC(O)c2ccc3c(n2)COC(c2ccccc2)O3)cc1` (stereo not given), the figure is 70 °C; as for `Cc1ccc2c(c1)C(C(Cl)(Cl)Cl)OC(C(Cl)(Cl)Cl)O2` (stereo not given), 134 to 135 °C; as for `Cc1ccc(-c2nc(C(F)(F)F)cn2-c2ccc(S(C)(=O)=O)cc2)nc1`, 196 °C. The figure for `CCCCCCCCCCCCCCCCCCOCCOCCOC(=O)NCc1ccccn1` is 61 to 62 °C; for `Clc1ccccc1C=Nc1c2c(nc3ccccc13)CCCC2` it is 165 to 166 °C. For the molecule `CCCCCCCCCCCCCCCCCCc1cc(OC(=O)CC)ccc1O`, the melting point lay within 75 to 78 °C. For `CCCc1ccc(-n2nc(Cl)cc2-c2ccc(S(C)(=O)=O)cc2)cc1`, the melting point lay within 143 to 144 °C.

In turn, `CCOCc1nc2c(N)nc(C)c(C)c2n1CCNC(=O)Nc1ccccc1` had a melting point of 110 °C.

`CN1C(=O)C(C)(C)N=C(c2ccccc2Cl)c2cc(N)ccc21` showed a melting point of 85 to 110 °C.

`NC(=O)C(Nc1ccc(I)cc1)c1ccccc1` (stereo not given) displayed a melting point of 134 to 137 °C. In turn, `CC(C)C[C@H](N)C(=O)NCCCCNC(=O)c1ccccc1` registered a melting point of 146 to 148 °C. As for `N#CC(Cc1ccco1)(Cn1cncn1)c1ccc(Cl)cc1` (stereo not given), the figure is 112 to 114 °C.
